Experimental data published in ChEMBL document CHEMBL1126503, “Syntheis of TRP-VAL non-cleavable dipeptide transition state isosteres” (Bioorg Med Chem Lett, 1993).
Active and inactive are the calls of the source. The rule behind the calls is not given here.

Test system: Endothelial cell
Assay: Tested for inhibition of Endothelin-converting enzyme derived from bovine endothelial cell; NA means inactive uM
Assay type: cell-based

Compound | inhibition
CCOC(=O)/C(=C/C(=O)[C@H](Cc1c[nH]c2ccccc12)NC(=O)OC(C)(C)C)C(C)C | inactive
CC(C)/C(=C/C(=O)[C@H](Cc1c[nH]c2ccccc12)NC(=O)OC(C)(C)C)C(=O)O | inactive
COC(=O)[C@@H](NC(=O)[C@H](CC(N)=O)NC(=O)/C(=C\C(=O)[C@H](Cc1c[nH]c2ccccc12)NC(=O)OC(C)(C)C)C(C)C)C(C)C(=O)C(C)(C)C (stereo partly drawn) | inactive
